Twelve compounds from patent publication US5079260A, “Method for treating inflammation and compounds and compositions suitable for use therein” (Nova Pharmaceutical Corporation, priority 1990, dated 1992) can be followed below.

For assay [1], the system named is Ear Edema Caused by Arachidonic Acid. As to the kind of experiment: Inhibition of Ear Edema Caused by Arachidonic Acid (II), Table 8. In kind it is in vivo, CF-1 mice. The following applies: i.p., sixty minutes. As for the experimental part: Inhibition of Ear Edema Caused by Arachidonic Acid (II)
CF-1 mice, 25-30 g body weight, six animals per group, were used. The requisite amount of the test compound was dissolved is dimethyl sulfoxide or 0.5% methylcellulose and 100 μL of the solution was injected intraperitoneally 30 minutes prior to the administration of 100 mg/kg of arachidponic acid. A solution of this irritant, b 100 mg/mL in ethanol, was applied to the surface of the ear, 5 μL to the upper surface and 5 μL to the lower surface. After sixty minutes, the thickness of the ear was measured to 0.01 mm by a micrometer with the loose drag positioned at the lateral-most edge of the mid-point of the pinna. Data were calculated as the percent inhibityion by the test compound of increased ear thickness compared to control animals recieveing only the irritant.

Assay [2] has as its system Ear Edema Caused By Tetradecanoylphorbol Acetate. The experiment in a line: Inhibition of Ear Edema Caused by Tetradecanoylphorbol Acetate (II), Table 7. As to conditions: i.p., 3 h. The class given is in vivo, CF-1 Mice. The method, then:
Inhibition of Ear Edema Caused by Tetradecanoylphorbol Acetate (II)
CF-1 Mice, 25-30 g body weight, six animals per group were used. Test compounds were administered intraperitoneally or topically as follows. For intraperitoneal administration, the test compound was dissolved in dimethyl sulfoxide or 0.5% methylcellulose and 100 microliters was injected 30 minutes prior to irritant (100 mg/kg, i.p.). […] A solution of the irritant, tetradecanoylphorbol acetate, 200 μg/mL, was added to the surface of the ear, 5 μL to the upper surface and 5 μL to the lower surface. After three hours, the thickness of the ear was measured to 0.01 mm by a micrometer with loose drag, positioned at the lateral-most edge of the mid-point of the pinna. Data were calculated as the inhibition of increased ear thickness compared to control animals receiving only the irritant.

Assay [3] concerns Ear Edema Caused by Oxazolone. The experiment in a line: Inhibition of Ear Edema Caused by Oxazolone (II), Table 10. In kind it is in vivo, CF-1 mice. As to conditions: i.p., 24 h. The method, then:
Inhibition of Ear Edema Caused by Oxazolone (II)
CF-1 mice, 25-30 g body weight, five to six animals per group were used. The mice were sensitized to the irritant two weeks prior to the test by dribbling 100 μL of a 3% solution of oxazolone in acetone onto the abdominal skin of the animal. Test compounds were administered intraperitoneally as follows. […] The irritant, 3% oxazolone in acetone, was added to the surface of the ear, 5 μL added to the upper surface and 5 μL added to the lower surface. After twenty four hours, the thickness of the ear was measured to 0.01 mm by a micrometer with loose drag, positioned at the lateral-most edge of the mid-point of the pinna. Data were calculated as the inhibition of increased ear thickness compared to control animals' receiving only the irritant.

Assay [4] deals with Ear Edema Caused by Xylene. The experiment in a line: Inhibition of Ear Edema Caused by Xylene (II), Table 9. The class given is in vivo, CF-1 mice. As to conditions: i.p., 2 h. As for the experimental part: Inhibition of Ear Edema Caused by Xylene (II)
CF-1 mice, 25-30 g body weight, six animals per group, were used. The requisite amount of the test compound was dissolved is dimethyl sulfoxide or 0.5% methylcellulose and 100 μL of the solution was injected intraperitoneally 30 minutes prior to the administration the irritant. The irritant xylene was applied to the surface of the ear, 20 μL to the upper surface and 20 μL to the lower surface, After two hours, the thickness of the ear was measured to 0.01 mm by a micrometer with the loose drag positioned at the lateral-most edge of the mid-point of the pinna. Data were calculated as the percent inhibition by the test compound of increased ear thickness compared to control animals receiving only the irritant.

The term % Inhibition denotes the change of the read-out against control, counted positive when it falls. Lower therefore signals little suppression. On to `Cc1cccc2c1-c1ccccc1C2COC(=O)N[C@@H](CC(C)C)C(=O)O` (stereo partly drawn) [NPC 15325, N-{[9H-(4-Methylfluoren-9-yl)methoxy]carbonyl}-L-leucine], for which the “% Inhibition Intraperitoneal” value turned out to be 52% in assay [1] (10 mg/kg); 63% in assay [1] (30 mg/kg); 100% in assay [1] (100 mg/kg); 36% in assay [2] (10 mg/kg); 11% in assay [2] (30 mg/kg); 82% in assay [2] (100 mg/kg). For the same compound, the “% Inhibition Intraperitoneal” value in assay [3] (10 mg/kg) is listed as 22%; in assay [3] (30 mg/kg) it was 24%; in assay [3] (100 mg/kg), 49%. Besides, the “% Inhibition” value in assay [4] (10 mg/kg) is 16%; in assay [4] (30 mg/kg), 25%; in assay [4] (100 mg/kg), 78%.
As to `CCOC(=O)[C@H](CC(C)C)NC(=O)OCC1c2ccccc2-c2ccccc21` [NPC 15327, N-[(9H-Fluoren-9-ylmethoxy)carbonyl]-L-leucine ethyl ester], the “% Inhibition Intraperitoneal” value in assay [2] (10 mg/kg) is 37%; in assay [2] (30 mg/kg) it was 64%; in assay [2] (100 mg/kg), 77%. Also, the “% Inhibition” value in assay [4] (10 mg/kg) is 18%; in assay [4] (30 mg/kg), 8%; in assay [4] (100 mg/kg), 19%.
As for `CC(C)C[C@H](NC(=O)OCC1c2ccccc2-c2ccccc21)C(=O)OCc1ccccc1` [NPC 15328, N-[(9H-Fluoren-9-ylmethoxy)carbonyl]-L-leucine benzyl ester], the “% Inhibition Intraperitoneal” value in assay [2] (10 mg/kg) worked out at 49%; in assay [2] (30 mg/kg) it was 47%; in assay [2] (100 mg/kg), 62%. For the same compound, the “% Inhibition” value in assay [4] (10 mg/kg) is given as 19%; in assay [4] (30 mg/kg), 29%; in assay [4] (100 mg/kg), 13%.
Take `CCCC[C@H](NC(=O)CCC1c2ccccc2-c2ccccc21)C(=O)O` [NPC 15894, N-[3-(9H-Fluoren-9-yl)propionyl]-L-norleucine, quarter hydrate]: the “% Inhibition Intraperitoneal” value in assay [1] (10 mg/kg) stood at 22%; in assay [1] (30 mg/kg) it was 40%; in assay [1] (100 mg/kg) it was 60%; in assay [2] (10 mg/kg), 11%; in assay [2] (30 mg/kg) it was 0%; in assay [2] (100 mg/kg), 68%. Also, the results for the “% Inhibition Intraperitoneal” value in assay [3] (10 mg/kg), in assay [3] (30 mg/kg) and in assay [3] (100 mg/kg) were 29%, 14% and 35%, respectively. Moreover, the “% Inhibition” value stood at 0% in assay [4] (10 mg/kg), 0% in assay [4] (30 mg/kg) and 34% in assay [4] (100 mg/kg).
Regarding `O=C(CCC1c2ccccc2-c2ccccc21)N[C@@H](CCc1ccccc1)C(=O)O` [NPC 15895, N-[3-(9H-Fluoren-9-yl)propionyl]-L-Homophenylalanine, quarter hydrate], the “% Inhibition Intraperitoneal” value was 14% in assay [1] (10 mg/kg); 26% in assay [1] (30 mg/kg); 52% in assay [1] (100 mg/kg); 68% in assay [2] (10 mg/kg); 71% in assay [2] (30 mg/kg); 67% in assay [2] (100 mg/kg). In addition, the “% Inhibition Intraperitoneal” value in assay [3] (10 mg/kg) was determined as 4%; in assay [3] (30 mg/kg), 12%; in assay [3] (100 mg/kg), 71%. Moreover, the “% Inhibition” value in assay [4] (10 mg/kg) came out at 0%; in assay [4] (30 mg/kg) it was 0%; in assay [4] (100 mg/kg) it was 51%.
On to `O=C(CCC1c2ccccc2-c2ccccc21)N[C@@H](Cc1ccccc1)C(=O)O` [NPC 15896, N-[3-(9H-Fluoren-9-yl)propionyl]-L-Phenylalanine], for which the “% Inhibition Intraperitoneal” value in assay [1] (10 mg/kg) was determined as 16%; in assay [1] (30 mg/kg) it was 24%; in assay [1] (100 mg/kg), 72%; in assay [2] (10 mg/kg), 0%; in assay [2] (30 mg/kg), 0%; in assay [2] (100 mg/kg), 84%. In addition, the “% Inhibition” value is recorded as 28% in assay [4] (10 mg/kg), 24% in assay [4] (30 mg/kg) and 21% in assay [4] (100 mg/kg).
Take `Cc1cccc2c1-c1ccccc1C2COC(=O)N[C@H](C(=O)O)C(C)(C)C` (stereo partly drawn) [NPC 15904, N-{[9H-(4-Methylfluoren-9-yl)methoxy]carbonyl}-L-tert-leucine]: the “% Inhibition Intraperitoneal” value in assay [1] (10 mg/kg) is on record as 19%; in assay [1] (30 mg/kg), 54%; in assay [1] (100 mg/kg) it was 79%; in assay [2] (10 mg/kg), 16%; in assay [2] (30 mg/kg) it was 0%; in assay [2] (100 mg/kg) it was 43%. The “% Inhibition Intraperitoneal” value is 21% in assay [3] (10 mg/kg), 54% in assay [3] (30 mg/kg) and 79% in assay [3] (100 mg/kg). The results for the “% Inhibition” value in assay [4] (10 mg/kg), in assay [4] (30 mg/kg) and in assay [4] (100 mg/kg) were 0%, 10% and 68%, respectively.
With `Cc1cccc2c1-c1ccccc1C2COC(=O)N[C@@H](CCc1ccccc1)C(=O)O` (stereo partly drawn) [NPC 15961, N-{[9H-(4-Methylfluoren-9-yl)methoxy]carbonyl}-L-homophenylalanine], the “% Inhibition Intraperitoneal” value in assay [3] (10 mg/kg) was found to be 29%; in assay [3] (30 mg/kg), 23%; in assay [3] (100 mg/kg), 92%. The “% Inhibition” value in assay [4] (10 mg/kg) stood at 41%; in assay [4] (30 mg/kg), 41%; in assay [4] (100 mg/kg), 57%.
On to `COc1ccc2c(c1)C(CCC(=O)N[C@@H](CC(C)C)C(=O)O)c1ccccc1-2` (stereo partly drawn) [NPC 15968, N-{9H-[3-(2-Methoxyfluoren-9-yl)propionyl]}-L-leucine], for which the “% Inhibition Intraperitoneal” value in assay [3] (10 mg/kg) was found to be 24%; in assay [3] (30 mg/kg), 24%; in assay [3] (100 mg/kg) it was 66%. Further, the “% Inhibition” value is reported as 23% in assay [4] (10 mg/kg), 62% in assay [4] (30 mg/kg) and 57% in assay [4] (100 mg/kg).
Turning to `Cc1cccc2c1C(CCC(=O)N[C@@H](CCc1ccccc1)C(=O)O)c1ccccc1-2` (stereo partly drawn) [NPC 15974, N-{9H-[3-(1-Methylfluoren-9-yl)propionyl]}-L-homophenylalanine], the “% Inhibition Intraperitoneal” value in assay [3] (10 mg/kg) was 0%; in assay [3] (30 mg/kg) it was 23%; in assay [3] (100 mg/kg), 48%. Also, the entries for the “% Inhibition” value in assay [4] (10 mg/kg), in assay [4] (30 mg/kg) and in assay [4] (100 mg/kg) were 48%, 57% and 59%, respectively.
Take `Cc1cccc2c1-c1ccccc1C2CCC(=O)N[C@@H](CC(C)C)C(=O)O` (stereo partly drawn) [NPC 15975, N-{9H-[3-(4-Methylfluoren-9-yl)propionyl]}-L-leucine quarter hydrate]: the “% Inhibition Intraperitoneal” value in assay [3] (10 mg/kg) worked out at 36%; in assay [3] (30 mg/kg), 19%; in assay [3] (100 mg/kg), 73%. Further, the entries for the “% Inhibition” value in assay [4] (10 mg/kg), in assay [4] (30 mg/kg) and in assay [4] (100 mg/kg) were 51%, 22% and 49%, respectively.
Take `CCCC[C@H](NC(=O)CCC1c2ccccc2-c2cccc(C)c21)C(=O)O` (stereo partly drawn) [NPC 15976, N-[9H-[3-(1-Methylfluoren-9-yl)propionyl]}-L-norleucine, quarter hydrate]: the “% Inhibition Intraperitoneal” value in assay [3] (10 mg/kg) is 10%; in assay [3] (30 mg/kg), 8%; in assay [3] (100 mg/kg), 73%. In addition, the “% Inhibition” value in assay [4] (10 mg/kg) came out at 59%; in assay [4] (30 mg/kg) it was 33%; in assay [4] (100 mg/kg), 62%.
